Measured values taken from ChEMBL document CHEMBL1140434, “1,2,4-Triazolo[1,5-a]quinoxaline as a versatile tool for the design of selective human A3 adenosine receptor antagonists: synthesis, biological evaluation, and molecular modeling studies of 2-(hetero)aryl- and 2-carboxy-substituted derivatives” (J Med Chem, 2005).

Columns and labels:
[1] = test system: Adenosine receptor A2a (Bos taurus); experiment: Percentage inhibition of [3H]CGS 21680 binding to adenosine A2A receptor in bovine striatal membranes at 34 uM; settings: Striatum, Membrane
[2] = target: T1, Adenosine receptor A3 (Homo sapiens) (UniProt P0DMS8); experiment: Percentage inhibition of [125I]AB-MECA binding to human adenosine A3 receptor expressed in CHO cells at 1 uM; assay type: cell-based
T1 sequence (whole entry): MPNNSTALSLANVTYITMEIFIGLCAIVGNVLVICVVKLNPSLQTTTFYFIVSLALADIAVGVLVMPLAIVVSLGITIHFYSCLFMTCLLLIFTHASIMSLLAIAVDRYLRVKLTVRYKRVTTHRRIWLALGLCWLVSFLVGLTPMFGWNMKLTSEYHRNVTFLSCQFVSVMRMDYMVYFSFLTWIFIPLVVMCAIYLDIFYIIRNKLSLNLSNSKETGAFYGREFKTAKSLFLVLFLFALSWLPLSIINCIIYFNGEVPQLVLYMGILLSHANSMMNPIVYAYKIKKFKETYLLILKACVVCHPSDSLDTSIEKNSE

[3] = target: T2, Adenosine receptor A1 (Bos taurus) (UniProt P28190); experiment: Percentage inhibition of [3H]CHA binding to adenosine A1 receptor in bovine cerebral cortical membranes at 34 uM; assay type: cell membranes
T2 sequence (whole entry): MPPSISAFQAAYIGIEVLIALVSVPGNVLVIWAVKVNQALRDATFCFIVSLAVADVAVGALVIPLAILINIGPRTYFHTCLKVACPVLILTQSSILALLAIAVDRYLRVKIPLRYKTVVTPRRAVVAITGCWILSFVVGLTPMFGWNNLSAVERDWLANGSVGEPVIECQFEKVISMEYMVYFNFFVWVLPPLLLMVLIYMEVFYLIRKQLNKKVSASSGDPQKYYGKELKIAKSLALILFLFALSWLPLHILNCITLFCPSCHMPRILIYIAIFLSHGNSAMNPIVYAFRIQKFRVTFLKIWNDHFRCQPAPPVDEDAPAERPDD

[4] = test system: Adenosine receptor A2a (Bos taurus); experiment: Percentage inhibition of [3H]CGS 21680 binding to adenosine A2A receptor in bovine striatal membranes at 20 uM; settings: Striatum, Membrane
[5] = target: T3, Adenosine receptor A1 (Bos taurus, UniProt P28190); experiment: Displacement of [3H]CHA from adenosine A1 receptor in bovine cerebral cortical membranes; assay type: cell membranes
T3 sequence (P28190 whole entry): T2 sequence (whole entry)

[6] = target: Adenosine receptor A2a (Bos taurus); experiment: Displacement of [3H]CGS 21680 from adenosine A2A receptor in bovine striatal membranes
[7] = target: T4, Adenosine receptor A1 (Homo sapiens, UniProt P30542); experiment: Displacement of [3H]CHA from cloned human adenosine A1 receptor expressed in CHO cells; assay type: cell-based
T4 sequence (P30542 whole entry): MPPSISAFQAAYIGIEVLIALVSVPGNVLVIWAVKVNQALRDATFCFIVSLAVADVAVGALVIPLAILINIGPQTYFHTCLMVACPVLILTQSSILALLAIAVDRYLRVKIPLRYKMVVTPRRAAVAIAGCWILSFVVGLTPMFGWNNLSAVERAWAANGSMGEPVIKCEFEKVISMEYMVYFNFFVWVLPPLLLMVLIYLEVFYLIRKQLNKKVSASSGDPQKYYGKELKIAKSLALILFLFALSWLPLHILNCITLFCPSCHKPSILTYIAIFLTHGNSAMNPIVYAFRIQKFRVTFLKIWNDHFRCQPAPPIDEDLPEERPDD

[8] = target: Adenosine receptors; A1 & A3 (Homo sapiens) (UniProt P30542+P0DMS8); experiment: Selectivity for human adenosine A3 receptor over human adenosine A1 receptor; assay type: protein assay
[9] = target: T5, Adenosine receptor A3 (Homo sapiens, UniProt P0DMS8); experiment: Displacement of [125I]AB-MECA from human adenosine A3 receptor expressed in CHO cells; assay type: cell-based
T5 sequence (P0DMS8 whole entry): T1 sequence (whole entry)

[10] = target: T2, Adenosine receptor A1 (Bos taurus); experiment: Percentage inhibition of [3H]CHA binding to adenosine A1 receptor in bovine cerebral cortical membranes at 20 uM; assay type: cell membranes
[11] = target: Adenosine receptor A2a (Homo sapiens) (UniProt P29274); experiment: Percentage inhibition of [3H]NECA binding to cloned human adenosine A2A receptor expressed in CHO cells at 10 uM; assay type: cell-based
[12] = target: T6, Adenosine receptor A1 (Homo sapiens) (UniProt P30542); experiment: Percentage inhibition of [3H]CHA binding to cloned human adenosine A1 receptor expressed in CHO cells at 10 uM; assay type: cell-based
T6 sequence (whole entry): T4 sequence (P30542 whole entry)

[13] = Selectivity for human adenosine A3 receptor over human adenosine A2A receptor

Chain of Adenosine receptor A2a (Homo sapiens) (P29274 whole entry): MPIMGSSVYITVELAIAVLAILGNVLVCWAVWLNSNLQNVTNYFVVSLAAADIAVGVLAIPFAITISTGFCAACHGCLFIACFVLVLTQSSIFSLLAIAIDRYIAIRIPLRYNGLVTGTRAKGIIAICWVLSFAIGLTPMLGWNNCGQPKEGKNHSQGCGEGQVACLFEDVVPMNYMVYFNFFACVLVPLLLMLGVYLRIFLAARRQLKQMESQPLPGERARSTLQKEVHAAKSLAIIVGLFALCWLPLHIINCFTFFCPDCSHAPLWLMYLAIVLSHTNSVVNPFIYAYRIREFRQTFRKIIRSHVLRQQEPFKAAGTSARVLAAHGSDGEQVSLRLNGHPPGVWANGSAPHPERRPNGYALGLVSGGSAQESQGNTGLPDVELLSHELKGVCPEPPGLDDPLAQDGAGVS

Row | SMILES | inhibition [4] | Ki [5] | Ki [9] | inhibition [10] | further results
1 | CCOC(=O)c1nc2c(=O)n(O)c3ccccc3n2n1 |  |  |  |  | inhibition [1]: 2%; inhibition [2]: 20%; inhibition [3]: 6.9%
2 | Oc1nc2ccccc2n2nc(-c3ccccc3)nc12 | 7% |  |  |  | 
3 | CCOC(=O)c1nc2c(N)nc3ccc(Cl)cc3n2n1 |  | 0.005 µM |  |  | inhibition [2]: 15%; Ki [6]: 4.9 µM
4 | COc1ccc(-c2nc3c(O)nc4ccc(C)cc4n3n2)cc1 |  | 1.44 µM | 0.0025 µM |  | inhibition [1]: 5%; Ki [7]: 0.00286 µM; Ratio Ki [8]: 1.1
5 | CCOC(=O)c1nc2c(=O)[nH]c3ccc(Cl)cc3n2n1 |  |  | 0.557 µM |  | 
6 | CCOC(=O)c1nc2c(O)nc3cc(N)ccc3n2n1 | 9% |  |  | 43% | 
7 | Oc1nc2ccccc2n2nc(-c3cccs3)nc12 |  | 2.94 µM | 0.002 µM |  | inhibition [1]: 54%; Ki [7]: 0.002 µM; Ratio Ki [8]: 1
8 | CCOC(=O)c1nc2c(=O)n(CC)c3ccccc3n2n1 |  |  |  |  | inhibition [1]: 20.5%; inhibition [2]: 0%; inhibition [3]: 13.3%
9 | Oc1nc2ccc(Cl)cc2n2ncnc12 | 23% |  |  | 0% | inhibition [2]: 18.8%
10 | COc1ccc(-c2nc3c(O)nc4ccccc4n3n2)cc1 |  |  |  |  | inhibition [11]: 49%; inhibition [3]: 0%; inhibition [12]: 32%
11 | CCOC(=O)c1nc2c(O)nc3ccccc3n2n1 | 3.6% |  | 0.0708 µM | 26% | inhibition [11]: 0%; inhibition [12]: 5%; Ratio Ki [8]: > 150; Ratio Ki [13]: > 150
12 | Oc1nc2ccc(Cl)cc2n2nc(-c3ccccc3)nc12 |  | 2.4 µM | 0.163 µM |  | 
13 | Cn1c(=O)c2nc(-c3ccccc3)nn2c2ccccc21 | 8.8% | 1.08 µM |  |  | inhibition [2]: 30%
14 | CCOC(=O)c1nc2c(=O)n(C(=O)OCC)c3ccccc3n2n1 | 4% |  | 0.0282 µM | 14% | inhibition [11]: 9%; inhibition [12]: 12%; Ratio Ki [8]: > 350; Ratio Ki [13]: > 350
15 | CCOC(=O)c1nc2c(O)nc3ccc(C)cc3n2n1 | 6.5% |  |  | 41% | 
16 | Nc1nc2ccc(Cl)cc2n2nc(-c3ccccc3)nc12 |  | 0.05 µM | 0.0914 µM |  | 
17 | O=C(NCc1ccccc1)c1nc2c(O)nc3ccccc3n2n1 | 27% |  |  |  | Ratio Ki [8]: 2.5
18 | Oc1nc2ccc(Cl)cc2n2nc(-c3ccoc3)nc12 |  | 1.95 µM | 0.078 µM |  | inhibition [1]: 25.3%; Ki [7]: 0.125 µM; Ratio Ki [8]: 1.6
19 | O=c1[nH]c2ccc(Cl)cc2n2nc(-c3cccs3)nc12 |  |  | 0.257 µM |  | 
20 | CCOC(=O)c1nc2c(=O)n(C)c3ccccc3n2n1 |  |  | 0.82 µM | 6.4% | 
21 | Oc1nc2ccccc2n2nc(-c3ccco3)nc12 |  |  | 0.033 µM |  | Ki [7]: 1.93 µM
22 | CCOC(=O)c1nc2c(=O)[nH]c3ccc(NC(C)=O)cc3n2n1 |  | 14.2 µM | 0.673 µM |  | 

Row | SMILES | inhibition [4] | Ki [5] | Ki [9] | inhibition [10] | further results
23 | CCOC(=O)c1nc2c(O)nc3ccc(N)cc3n2n1 | 32.7% |  | 0.025 µM | 64% | inhibition [11]: 22%; inhibition [12]: 33%; Ratio Ki [8]: > 400; Ratio Ki [13]: > 400
24 | O=c1[nH]c2ccc(Cl)cc2n2nc(-c3ccsc3)nc12 |  | 1 µM | 0.126 µM |  | 
25 | O=C(NCc1ccccc1)c1nc2c(=O)[nH]c3ccccc3n2n1 |  | 0.578 µM | 0.082 µM |  | Ki [7]: 0.205 µM
26 | Oc1nc2ccc(Cl)cc2n2nc(-c3cccs3)nc12 |  |  |  |  | inhibition [3]: 54.2%
27 | CCOC(=O)c1nc2c(=O)[nH]c3cc(N)ccc3n2n1 |  |  | 0.354 µM |  | 
28 | COc1ccc(-c2nc3c(N)nc4ccc(Cl)cc4n3n2)cc1 |  | 0.15 µM | 0.0029 µM |  | inhibition [11]: 21%; Ki [7]: 0.036 µM
29 | Cc1ccc2nc(O)c3nc(-c4ccccc4)nn3c2c1 | 25% |  |  |  | 
30 | CCOC(=O)c1nc2c(O)nc3cc(Cl)ccc3n2n1 | 15.2% |  | 0.34 µM | 48% | 
31 | O=C(OCc1ccccc1)c1nc2c(O)nc3ccccc3n2n1 | 47% | 3.22 µM | 0.0516 µM |  | inhibition [11]: 27%; inhibition [12]: 33%; Ratio Ki [8]: > 200; Ratio Ki [13]: > 200
32 | Cn1c(=O)c2ncnn2c2cc(Cl)ccc21 | 8.9% |  |  | 11% | inhibition [2]: 0%
33 | COc1ccc(-c2nc3c(=O)[nH]c4ccc(Cl)cc4n3n2)cc1 |  | 1.06 µM | 0.0258 µM |  | Ki [7]: 0.00329 µM
34 | CCOC(=O)c1nc2c(O)nc3ccc(Cl)cc3n2n1 |  |  |  | 20% | inhibition [1]: 7%
35 | CCOC(=O)c1nc2c(=O)n(C)c3ccc(Cl)cc3n2n1 | 0% |  |  | 8% | inhibition [2]: 60%
36 | O=c1[nH]c2ccccc2n2nc(-c3ccccc3)nc12 |  | 0.268 µM | 0.396 µM |  | 
37 | CC(C)OC(=O)c1nc2c(O)nc3ccccc3n2n1 | 2.9% |  | 0.42 µM | 0% | 
38 | CCOC(=O)c1nc2c(=O)[nH]c3ccc(C)cc3n2n1 |  |  | 0.108 µM |  | 
39 | Oc1nc2ccccc2n2ncnc12 | 20% |  |  | 29% | inhibition [2]: 53%
40 | Cn1c(=O)c2nc(-c3ccccc3)nn2c2cc(Cl)ccc21 | 0% |  |  | 18% | inhibition [2]: 19%
41 | Cc1ccc2c(c1)n1nc(-c3ccccc3)nc1c(=O)n2C |  | 0.508 µM | 0.308 µM |  | 
42 | NC(=O)c1nc2c(O)nc3ccccc3n2n1 | 17% |  |  | 15% | inhibition [2]: 32%
43 | O=C(O)c1nc2c(O)nc3ccccc3n2n1 |  |  |  |  | inhibition [1]: 0%; inhibition [2]: 6.4%; inhibition [3]: 10%
44 | Cc1ccc2[nH]c(=O)c3nc(-c4ccccc4)nn3c2c1 |  | 0.525 µM | 0.111 µM |  | 
